Data set [1] can be described thus: Half life in rat at 1 mg/kg, iv. In kind it is ADME, organism-based. To be noted: in vivo.
Data set [2] can be described thus: Tmax in rat at 1 mg/kg, iv. To be noted: in vivo. Type of data set: ADME, organism-based.
The nature of data set [3]: Tmax in rat at 10 mg/kg, po. Type of data set: ADME, organism-based. To be noted: in vivo.
Data set [4] in a line: Cmax in rat at 1 mg/kg, iv. Type of data set: ADME, organism-based. The arrangement: dose 1 mg/kg, route intravenous. As to conditions: in vivo.
Data set [5] in a line: Cmax in rat at 10 mg/kg, po. Type of data set: ADME, organism-based. The arrangement: dose 10 mg/kg, route oral. To be noted: in vivo.
Data set [6] is described as follows: AUClast in rat at 1 mg/kg, iv. In kind it is ADME, organism-based. The arrangement: dose 1 mg/kg, time 0 - last, route intravenous. To be noted: in vivo.
Data set [7] can be described thus: AUClast in rat at 10 mg/kg, po. Type of data set: ADME, organism-based. The arrangement: dose 10 mg/kg, time 0 - last, route oral. To be noted: in vivo.
A short description of data set [8]: Oral bioavailability in rat at 10 mg/kg. In kind it is ADME, organism-based. As to conditions: in vivo.
The next data set has as its system NCI-H2228. The data set can be described thus: Antiproliferative activity against human NCI-H2228 cells after 72 hrs by MTT assay. As to conditions: NCI-H2228, 72 h. A general note: Formazan colour is commonly taken as a measure of viable cells.
Data set [9] in a line: Antiproliferative activity against human H2228/CR cells after 72 hrs by MTT assay. As to conditions: NCI-H2228, 72 h.
Data set [10] concerns the target Voltage-gated inwardly rectifying potassium channel KCNH2 (Homo sapiens, UniProt Q12809). The data set can be described thus: Inhibition of human ERG by fluorescently labeled tracer binding method.

As usually defined, the half-life is the time needed for the level to fall by half in the phase considered. Usually Tmax stands for the time at which the peak concentration occurs. The Cmax is the highest concentration seen after dosing. In general, AUC(0-t) refers to exposure summed from dosing to a finite time, without extrapolation to infinity. A high value points to high exposure. In general, bioavailability refers to dose-corrected exposure relative to a reference, in per cent. A high value points to much systemic uptake. Broadly, the IC50 is the concentration that gives 50% inhibition.

Chain of Voltage-gated inwardly rectifying potassium channel KCNH2 (Q12809 whole entry): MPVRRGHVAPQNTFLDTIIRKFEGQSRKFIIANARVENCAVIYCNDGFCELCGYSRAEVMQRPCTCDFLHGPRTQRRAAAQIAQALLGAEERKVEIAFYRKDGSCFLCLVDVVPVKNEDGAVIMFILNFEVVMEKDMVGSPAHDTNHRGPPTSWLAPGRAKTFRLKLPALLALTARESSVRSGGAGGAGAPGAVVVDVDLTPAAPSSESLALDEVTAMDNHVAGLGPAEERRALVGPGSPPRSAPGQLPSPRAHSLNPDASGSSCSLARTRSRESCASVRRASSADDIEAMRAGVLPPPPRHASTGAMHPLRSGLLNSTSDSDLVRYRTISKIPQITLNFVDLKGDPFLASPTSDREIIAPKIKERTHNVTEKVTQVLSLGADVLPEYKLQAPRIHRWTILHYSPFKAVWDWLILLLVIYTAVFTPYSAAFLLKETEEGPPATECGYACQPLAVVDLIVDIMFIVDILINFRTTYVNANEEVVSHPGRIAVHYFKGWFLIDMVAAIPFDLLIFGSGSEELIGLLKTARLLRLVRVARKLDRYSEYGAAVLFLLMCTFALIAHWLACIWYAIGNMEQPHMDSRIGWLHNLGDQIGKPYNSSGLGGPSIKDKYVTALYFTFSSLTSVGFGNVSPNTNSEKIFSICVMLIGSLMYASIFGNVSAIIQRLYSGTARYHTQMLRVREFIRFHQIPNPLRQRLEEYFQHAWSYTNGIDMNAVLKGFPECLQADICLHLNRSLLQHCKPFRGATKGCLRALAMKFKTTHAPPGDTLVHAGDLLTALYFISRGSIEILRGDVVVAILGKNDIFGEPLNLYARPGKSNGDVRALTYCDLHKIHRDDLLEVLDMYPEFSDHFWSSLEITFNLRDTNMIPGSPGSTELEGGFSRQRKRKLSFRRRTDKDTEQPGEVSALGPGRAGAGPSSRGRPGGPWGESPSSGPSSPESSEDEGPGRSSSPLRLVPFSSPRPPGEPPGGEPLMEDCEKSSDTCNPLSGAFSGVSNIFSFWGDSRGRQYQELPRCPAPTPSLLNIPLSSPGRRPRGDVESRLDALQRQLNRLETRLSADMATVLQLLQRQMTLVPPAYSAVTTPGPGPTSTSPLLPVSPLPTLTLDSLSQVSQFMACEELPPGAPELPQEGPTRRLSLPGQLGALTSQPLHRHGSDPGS

As to `Oc1ccc(Oc2ccnc3cc(-c4cnn(C5CCNCC5)c4)ccc23)cc1`, the half-life in data set [1] was 3.5 h. The Tmax in data set [2] came out at 6 min; in data set [3], 6 h. Besides, the Cmax in data set [4] was found to be 83.5 ng/mL; in [5] it was 78.4 ng/mL. In addition, the results for the AUC(0-t) in data set [6] and in [7] were 155 ng·h/mL and 384 ng·h/mL, respectively. The compound also returned a bioavailability in [8] of 24.8%.

As for `Cc1ccc(Oc2ccnc3cc(-c4cnn(C5CCNCC5)c4)ccc23)cc1`, the half-life in data set [1] was 3.3 h. For the same compound, the Tmax in data set [2] amounted to 6 min; in [3], 4 h. The maximum concentration (Cmax) is 94.1 ng/mL in data set [4] and 131 ng/mL in data set [5]. The area under the curve AUC(0-t) in [6] came out at 166 ng·h/mL; in data set [7] it was 745 ng·h/mL. The compound further had a bioavailability in data set [8] of 44.8%.

For the compound `C[C@@H](Oc1cc(-c2cnn(C3CCNCC3)c2)cnc1N)c1c(Cl)ccc(F)c1Cl` [CRIZOTINIB], the values for the IC50 (with NCI-H2228; in data set [9]) were 2500 nM and 10000 nM, respectively.

`COc1ccc(Oc2ccnc3cc(-c4cnn(C5CCNCC5)c4)ccc23)cc1` gave a half-life in data set [1] of 10.7 h. Besides, the Tmax in data set [2] came to 6 min; in [3], 4 h. For the same compound, the Cmax in [4] was determined as 48.9 ng/mL; in data set [5], 83.9 ng/mL. Moreover, the AUC(0-t) worked out at 95.9 ng·h/mL in data set [6] and 437 ng·h/mL in [7]. Moreover, in [8], the bioavailability was determined as 45.5%. This compound also had a concentration for half-maximal inhibition (IC50) in [10] of 2460 nM.

The values are drawn from ChEMBL document CHEMBL4024756, “Identification of 4-Phenoxyquinoline Based Inhibitors for L1196M Mutant of Anaplastic Lymphoma Kinase by Structure-Based Design” (J Med Chem, 2017).
